According to the supplement of paper PMC13207355:

Assays:
Conditions in all cases: exposure time: 72 h
[1] = tested on: E34 (patient-derived glioblastoma stem cells of proneural subtype); assay: surviving fraction (nuclei count normalised to DMSO); higher = more cells surviving (less toxic)
[2] = tested on: E13 (patient-derived glioblastoma stem cells of classical subtype); assay: as above
[3] = tested on: E28 (patient-derived glioblastoma stem cells of classical subtype); assay: as above
[4] = tested on: E21 (patient-derived glioblastoma stem cells of mesenchymal subtype); assay: as above
[5] = tested on: E31 (patient-derived glioblastoma stem cells of proneural subtype); assay: as above
[6] = tested on: FT3469 (normal neural stem cell line); assay: as above
[7] = tested on: E57 (patient-derived glioblastoma stem cells of mesenchymal subtype); assay: as above
[8] = tested on: E34; assay: phenotypic distance (Euclidean, principal components) from DMSO controls (arbitrary units); higher = stronger morphological change
[9] = tested on: E13; assay: as above
[10] = tested on: E28; assay: as above
[11] = tested on: E21; assay: as above
[12] = tested on: E31; assay: as above
[13] = tested on: FT3469; assay: as above
[14] = tested on: E57; assay: as above
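Throughout, for phenotypic distance (Euclidean, principal components) from DMSO controls: cell Painting imaging in 384-well plates, CellProfiler features reduced to at least 20 principal components, Euclidean distance versus same-plate DMSO vehicle wells (0.1% v/v), median over six images per well.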
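Throughout, for surviving fraction (nuclei count normalised to DMSO): nuclei counted by high-content imaging of Hoechst-stained cells in laminin-coated 384-well plates, relative to 0.1% DMSO vehicle wells, with staurosporine as cell-death control.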

O=C1CC[C@@H](C(=O)N2CSC[C@H]2C(=O)O)N1 [Pidotimod]
Conditions	phenotypic distance	surviving fraction
[1], 4.1 nM	–	0.98
[1], 12.3 nM	–	0.951
[1], 37 nM	–	0.786
[1], 111.1 nM	–	1.09
[1], 333.3 nM	–	0.996
[1], 1000 nM	–	1.04
[1], 3000 nM	–	1.04
[2], 4.1 nM	–	0.925
[2], 12.3 nM	–	1.01
[2], 37 nM	–	0.97
[2], 111.1 nM	–	1
[2], 333.3 nM	–	1.06
[2], 1000 nM	–	1.01
[2], 3000 nM	–	0.913
[3], 4.1 nM	–	1.2
[3], 12.3 nM	–	1.02
[3], 37 nM	–	0.964
[3], 111.1 nM	–	1.11
[3], 333.3 nM	–	1.04
[3], 1000 nM	–	1.16
[3], 3000 nM	–	0.954
[4], 4.1 nM	–	0.96
[4], 12.3 nM	–	1
[4], 37 nM	–	0.984
[4], 111.1 nM	–	1.08
[4], 333.3 nM	–	0.991
[4], 1000 nM	–	0.96
[4], 3000 nM	–	0.947
[5], 4.1 nM	–	1.08
[5], 12.3 nM	–	1.02
[5], 37 nM	–	1.01
[5], 111.1 nM	–	1.11
[5], 333.3 nM	–	0.994
[5], 1000 nM	–	1.17
[5], 3000 nM	–	0.845
[6], 4.1 nM	–	0.972
[6], 12.3 nM	–	1.13
[6], 37 nM	–	0.987
[6], 111.1 nM	–	1.06
[6], 333.3 nM	–	1.01
[6], 1000 nM	–	1.01
[6], 3000 nM	–	0.933
[7], 4.1 nM	–	1.07
[7], 12.3 nM	–	0.938
[7], 37 nM	–	1.02
[7], 111.1 nM	–	1.11
[7], 333.3 nM	–	0.978
[7], 1000 nM	–	1
[7], 3000 nM	–	1.03
[8], 4.1 nM	0.643	–
[8], 12.3 nM	0.613	–
[8], 37 nM	0.723	–
[8], 111.1 nM	0.721	–
[8], 333.3 nM	0.963	–
[8], 1000 nM	0.89	–
[8], 3000 nM	0.949	–
[9], 4.1 nM	0.802	–
[9], 12.3 nM	0.46	–
[9], 37 nM	0.672	–
[9], 111.1 nM	0.456	–
[9], 333.3 nM	3.33	–
[9], 1000 nM	0.449	–
[9], 3000 nM	0.493	–
[10], 4.1 nM	0.887	–
[10], 12.3 nM	1.4	–
[10], 37 nM	0.401	–
[10], 111.1 nM	0.59	–
[10], 333.3 nM	0.551	–
[10], 1000 nM	0.647	–
[10], 3000 nM	0.608	–
[11], 4.1 nM	0.591	–
[11], 12.3 nM	0.496	–
[11], 37 nM	0.601	–
[11], 111.1 nM	0.694	–
[11], 333.3 nM	0.815	–
[11], 1000 nM	0.785	–
[11], 3000 nM	0.805	–
[12], 4.1 nM	0.386	–
[12], 12.3 nM	0.576	–
[12], 37 nM	0.777	–
[12], 111.1 nM	0.985	–
[12], 333.3 nM	0.492	–
[12], 1000 nM	0.921	–
[12], 3000 nM	0.594	–
[13], 4.1 nM	0.84	–
[13], 12.3 nM	0.912	–
[13], 37 nM	0.359	–
[13], 111.1 nM	0.641	–
[13], 333.3 nM	0.526	–
[13], 1000 nM	0.625	–
[13], 3000 nM	0.629	–
[14], 4.1 nM	0.799	–
[14], 12.3 nM	1.03	–
[14], 37 nM	0.543	–
[14], 111.1 nM	0.877	–
[14], 333.3 nM	0.527	–
[14], 1000 nM	0.924	–
[14], 3000 nM	0.651	–

O=C(/C=C\n1cnc(-c2cc(C(F)(F)F)cc(C(F)(F)F)c2)n1)NNc1cnccn1 [Selinexor]
Conditions	phenotypic distance	surviving fraction
[1], 4.1 nM	–	0.782
[1], 12.3 nM	–	0.833
[1], 37 nM	–	0.867
[1], 111.1 nM	–	0.547
[1], 333.3 nM	–	0.582
[1], 1000 nM	–	0.569
[1], 3000 nM	–	0.582
[2], 4.1 nM	–	0.654
[2], 12.3 nM	–	0.572
[2], 37 nM	–	0.418
[2], 111.1 nM	–	0.355
[2], 333.3 nM	–	0.384
[2], 1000 nM	–	0.31
[2], 3000 nM	–	0.242
[3], 4.1 nM	–	0.643
[3], 12.3 nM	–	0.605
[3], 37 nM	–	0.441
[3], 111.1 nM	–	0.4
[3], 333.3 nM	–	0.327
[3], 1000 nM	–	0.373
[3], 3000 nM	–	0.246
[4], 4.1 nM	–	0.753
[4], 12.3 nM	–	0.729
[4], 37 nM	–	0.667
[4], 111.1 nM	–	0.572
[4], 333.3 nM	–	0.541
[4], 1000 nM	–	0.51
[4], 3000 nM	–	0.315
[5], 4.1 nM	–	0.703
[5], 12.3 nM	–	0.51
[5], 37 nM	–	0.444
[5], 111.1 nM	–	0.38
[5], 333.3 nM	–	0.311
[5], 1000 nM	–	0.331
[5], 3000 nM	–	0.239
[6], 4.1 nM	–	0.614
[6], 12.3 nM	–	0.659
[6], 37 nM	–	0.616
[6], 111.1 nM	–	0.614
[6], 333.3 nM	–	0.692
[6], 1000 nM	–	0.556
[6], 3000 nM	–	0.612
[7], 4.1 nM	–	0.554
[7], 12.3 nM	–	0.554
[7], 37 nM	–	0.43
[7], 111.1 nM	–	0.286
[7], 333.3 nM	–	0.313
[7], 1000 nM	–	0.32
[7], 3000 nM	–	0.244
[8], 4.1 nM	1.14	–
[8], 12.3 nM	1.28	–
[8], 37 nM	1.6	–
[8], 111.1 nM	1.64	–
[8], 333.3 nM	1.71	–
[8], 1000 nM	1.72	–
[8], 3000 nM	2.17	–
[9], 4.1 nM	1.6	–
[9], 12.3 nM	2.09	–
[9], 37 nM	3.06	–
[9], 111.1 nM	3.35	–
[9], 333.3 nM	3.49	–
[9], 1000 nM	3.23	–
[9], 3000 nM	4.73	–
[10], 4.1 nM	1.34	–
[10], 12.3 nM	1.88	–
[10], 37 nM	2.76	–
[10], 111.1 nM	2.65	–
[10], 333.3 nM	2.86	–
[10], 1000 nM	2.69	–
[10], 3000 nM	3.06	–
[11], 4.1 nM	2.91	–
[11], 12.3 nM	3.17	–
[11], 37 nM	3.01	–
[11], 111.1 nM	3.44	–
[11], 333.3 nM	3.53	–
[11], 1000 nM	3.96	–
[11], 3000 nM	4.26	–
[12], 4.1 nM	2.16	–
[12], 12.3 nM	2.72	–
[12], 37 nM	2.72	–
[12], 111.1 nM	3.08	–
[12], 333.3 nM	2.98	–
[12], 1000 nM	2.55	–
[12], 3000 nM	3.17	–
[13], 4.1 nM	1.68	–
[13], 12.3 nM	2.14	–
[13], 37 nM	1.85	–
[13], 111.1 nM	1.78	–
[13], 333.3 nM	2.12	–
[13], 1000 nM	1.48	–
[13], 3000 nM	1.57	–
[14], 4.1 nM	2.64	–
[14], 12.3 nM	2.17	–
[14], 37 nM	2.78	–
[14], 111.1 nM	3.97	–
[14], 333.3 nM	4.39	–
[14], 1000 nM	5.44	–
[14], 3000 nM	6.2	–

CNc1ccc2oc(C[C@H]3O[C@@]4(CC[C@H]3C)O[C@H]([C@H](C)C(=O)c3ccc[nH]3)[C@H](C)C[C@H]4C)nc2c1C(=O)O [Calcimycin]
Conditions	phenotypic distance	surviving fraction
[1], 4.1 nM	–	0.804
[1], 12.3 nM	–	0.991
[1], 37 nM	–	0.946
[1], 111.1 nM	–	0.787
[1], 333.3 nM	–	0.467
[1], 1000 nM	–	0.381
[1], 3000 nM	–	0.143
[2], 4.1 nM	–	0.894
[2], 12.3 nM	–	0.814
[2], 37 nM	–	0.678
[2], 111.1 nM	–	0.576
[2], 333.3 nM	–	0.266
[2], 1000 nM	–	0.11
[2], 3000 nM	–	0.061
[3], 4.1 nM	–	1.07
[3], 12.3 nM	–	1.19
[3], 37 nM	–	0.999
[3], 111.1 nM	–	0.82
[3], 333.3 nM	–	0.391
[3], 1000 nM	–	0.0896
[3], 3000 nM	–	0.0448
[4], 4.1 nM	–	0.98
[4], 12.3 nM	–	0.993
[4], 37 nM	–	0.951
[4], 111.1 nM	–	0.887
[4], 333.3 nM	–	0.438
[4], 1000 nM	–	0.0684
[4], 3000 nM	–	0.00892
[5], 4.1 nM	–	0.918
[5], 12.3 nM	–	0.898
[5], 37 nM	–	1
[5], 111.1 nM	–	0.786
[5], 333.3 nM	–	0.259
[5], 1000 nM	–	0.00976
[5], 3000 nM	–	0.00976
[6], 4.1 nM	–	1.05
[6], 12.3 nM	–	0.987
[6], 37 nM	–	0.999
[6], 111.1 nM	–	0.849
[6], 333.3 nM	–	0.578
[6], 1000 nM	–	0.25
[6], 3000 nM	–	0.118
[7], 4.1 nM	–	1.07
[7], 12.3 nM	–	0.989
[7], 37 nM	–	0.871
[7], 111.1 nM	–	0.561
[7], 333.3 nM	–	0.201
[7], 1000 nM	–	0.0743
[7], 3000 nM	–	0.0336
[8], 4.1 nM	1.43	–
[8], 12.3 nM	1.06	–
[8], 37 nM	1.29	–
[8], 111.1 nM	1.9	–
[8], 333.3 nM	5.09	–
[8], 1000 nM	6.74	–
[8], 3000 nM	8.56	–
[9], 4.1 nM	1	–
[9], 12.3 nM	0.71	–
[9], 37 nM	1.46	–
[9], 111.1 nM	3.31	–
[9], 333.3 nM	6.79	–
[9], 1000 nM	7.97	–
[9], 3000 nM	8.33	–
[10], 4.1 nM	0.698	–
[10], 12.3 nM	0.777	–
[10], 37 nM	0.856	–
[10], 111.1 nM	1.27	–
[10], 333.3 nM	2.95	–
[10], 1000 nM	5.6	–
[10], 3000 nM	6.55	–
[11], 4.1 nM	0.571	–
[11], 12.3 nM	0.699	–
[11], 37 nM	0.538	–
[11], 111.1 nM	1.96	–
[11], 333.3 nM	7.08	–
[11], 1000 nM	8.73	–
[11], 3000 nM	12.7	–
[12], 4.1 nM	0.62	–
[12], 12.3 nM	0.642	–
[12], 37 nM	0.72	–
[12], 111.1 nM	2.33	–
[12], 333.3 nM	7.91	–
[12], 1000 nM	11	–
[12], 3000 nM	10.4	–
[13], 4.1 nM	1.09	–
[13], 12.3 nM	0.726	–
[13], 37 nM	1.32	–
[13], 111.1 nM	1.82	–
[13], 333.3 nM	3.73	–
[13], 1000 nM	6.31	–
[13], 3000 nM	5.79	–
[14], 4.1 nM	1.32	–
[14], 12.3 nM	0.365	–
[14], 37 nM	1.3	–
[14], 111.1 nM	3.84	–
[14], 333.3 nM	7.84	–
[14], 1000 nM	9.39	–
[14], 3000 nM	9.11	–
